Test results as given in patent publication US20250145608A1, “KRAS DEGRADING COMPOUNDS COMPRISING ANNULATED 2-AMINO-3-CYANO THIOPHENES” (Boehringer Ingelheim Int'l GmbH Corp., priority 2021, published 2025).
Where two headings read alike, the source gives them in different places.

What was measured:
Format in all cases: cell-based
KRAS4B G12D = target: T1, KRAS4B G12D (Homo sapiens, UniProt P01116, G12D); test: HiBit KRAS4B mutant spectrum degradation assay, KRAS4B G12D in GP5d cells (18 h); conditions: KRAS mutation G12D
T1 construct: HiBit; expressed in transfected cells; host or cells: GP5d cells (ECACC 95090715), stably transduced with lentivirus, CMV promoter
From the text: (§1) The therapeutically relevant mutant KRAS constructs (WT, G12C, G12D, G12V, G13D) were obtained by site directed mutagenesis using a KRAS4B WT cDNA construct as a template. GP5d cells (ECACC Cat. No. 95090715) were transduced with lentiviral vectors expressing mutant KRAS4B cDNA under control of a CMV promoter. Stably transduced cells were selected using a neomycin selectable marker encoded on the construct.
(§2) To assess PROTAC-mediated degradation of various KRAS mutants, GP5d cells stably transduced with KRAS4B constructs as described above were seeded at 25000 cells per well in 100 μL Dulbecco's Modified Eagle medium (Sigma cat. no. D6429) supplemented with 10% fetal calf serum into white bottom opaque 96 well plates (Perkin Elmer cat no. 5680). Plates were incubated at 37° C., 5% CO2 in a humidified incubator over night to allow the cells to adhere. […] Plates were further incubated at 37° C. for 18 hours. Following incubation, 100 μL per well Promega Nano-Glo HiBit lytic detection reagent mix (Promega Nano-Glo HiBit Lytic Detection System #N3050), prepared according to the manufacturer's instructions in the kit, were added. To allow for adequate cell lysis, plates were incubated on an orbital shaker for 15 min and further incubated 30 min at room temperature. Upon completion of cell lysis, luminescence was measured using an Envision plate reader using the Ultrasensitive Luminescence Protocol for 96 well plates. Luminescence levels were normalized by the values obtained with DMSO-treated samples and plotted as percent of DMSO control. DC50 values were computed using a four parametric logistic model and are reported in nM in Table 65 for representative example (Ex.) compounds of the invention. Dmax values represent the maximal extent of degradation observed and is stated as percent of control (% Ctrl.) treatments in Table 66 for representative example (Ex.) compounds of the invention.

SW620 cells = test: SW620 cell proliferation assay (colorectal cancer, G12V), 5 days; conditions: Homo sapiens, SW-620, 120 h
Description: SW620 Cell Proliferation Assay (Colorectal Cancer, G12V)
(§3) SW620 cells (ATCC CCL-227) are dispensed into white bottom opaque 96 well plates (Perkin Elmer cat no. 5680) at a density of 2000 cells per well in 100 μL DMEM (BioWhittaker, Cat #BE12-605F) supplemented with 10% FCS. […] Compounds (10 mM stock in DMSO) are added at logarithmic dose series using the HP Digital Dispenser D300 (Tecan), normalizing for added DMSO. For the TO time point measurement, untreated cells are analysed at the time of compound addition. Plates are incubated for 5 days, and cell viability is measured using CellTiter-Glo luminescent cell viability reagent (Promega, Cat. No G7570). Viability (stated as percent of control) is defined as relative luminescence units RLU of each well divided by the RLU of cells in DMSO controls. IC50 values were computed from relative viability values using a four parametric logistic model.

KRAS4B G12V = target: T2, KRAS4B G12V (Homo sapiens, UniProt P01116, G12V); test: HiBit KRAS4B mutant spectrum degradation assay, KRAS4B G12V in GP5d cells (18 h); conditions: KRAS mutation G12V
T2 construct: HiBit; expressed in transfected cells; host or cells: GP5d cells (ECACC 95090715), stably transduced with lentivirus, CMV promoter
From the text: as §1, §2

KRAS(G12D) = target: T3, KRAS(G12D) (Homo sapiens, UniProt P01116, G12D); test: HiBit degradation assay in GP5d-HiBit-KRAS(G12D) cells (18 h; DC50, Dmax)
T3 construct: introduced immediately downstream of the initiating Methionine codon of the endogenous KRAS locus; host or cells: GP5d-HiBit-KRAS(G12D), a CRISPR knock-in at the endogenous locus
In short: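 GP5d cells carry an endogenous N-terminal HiBit tag on KRAS(G12D), knocked in by CRISPR. They were seeded overnight in DMEM/10% FCS, exposed to compound for 18 h at 37° C, then lysed for HiBit luminescence, normalised to DMSO. DC50 comes from a four-parameter logistic fit; Dmax is maximal degradation as % of control.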

GP5d cells = test: GP5d cell proliferation assay (colorectal cancer, G12D), 5 days; conditions: Homo sapiens, 120 h
Description: GP5d Cell Proliferation Assay (Colorectal Cancer, G12D)
as §3, with “GP5d” for “SW620”, “(ECACC 95090715)” for “(ATCC CCL-227)”, “plates” for “plates (Perkin Elmer cat no. 5680)”, “5000” for “2000”

NCI-H358 cells = test: NCI-H358 CTG proliferation assay (120 h) (NSCLC, G12C); conditions: Homo sapiens
In short: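 NCI-H358 cells (KRAS G12C) were seeded at 2000/well (assay 1) or 200/well (assay 2) in RPMI-1640 + 10% FCS and dosed with a logarithmic series, DMSO-normalized. After 120 h, viability was read by CellTiter-Glo luminescence as percent of DMSO control, with a T0 read at dosing. IC50 came from a four-parameter fit.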

KRAS4B G13D = target: T4, KRAS4B G13D (Homo sapiens, UniProt P01116, G13D); test: HiBit KRAS4B mutant spectrum degradation assay, KRAS4B G13D in GP5d cells (18 h); conditions: KRAS mutation G13D
T4 construct: HiBit; expressed in transfected cells; host or cells: GP5d cells (ECACC 95090715), stably transduced with lentivirus, CMV promoter
From the text: as §1, §2

KRAS4B WT = target: T5, KRAS4B WT (Homo sapiens, UniProt P01116); test: HiBit KRAS4B mutant spectrum degradation assay, KRAS4B WT in GP5d cells (18 h); conditions: KRAS mutation G12WT
T5 construct: HiBit; expressed in transfected cells; host or cells: GP5d cells (ECACC 95090715), stably transduced with lentivirus, CMV promoter
From the text: as §1, §2

T1 sequence (P01116 1-188 isoform P01116-2 G12D): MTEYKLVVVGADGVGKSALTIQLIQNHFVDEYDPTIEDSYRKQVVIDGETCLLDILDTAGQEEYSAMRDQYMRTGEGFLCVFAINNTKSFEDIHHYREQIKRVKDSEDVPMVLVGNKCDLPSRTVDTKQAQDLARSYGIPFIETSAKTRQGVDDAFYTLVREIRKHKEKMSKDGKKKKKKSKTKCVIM
T3 sequence (P01116 1-188 isoform P01116-2 G12D): as above
T5 sequence (P01116 1-188 isoform P01116-2): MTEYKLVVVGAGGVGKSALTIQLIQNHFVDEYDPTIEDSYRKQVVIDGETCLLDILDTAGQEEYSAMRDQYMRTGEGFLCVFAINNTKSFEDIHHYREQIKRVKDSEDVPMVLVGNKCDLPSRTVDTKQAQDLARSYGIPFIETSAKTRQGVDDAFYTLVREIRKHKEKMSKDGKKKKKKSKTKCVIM
T4 sequence (P01116 1-188 isoform P01116-2 G13D): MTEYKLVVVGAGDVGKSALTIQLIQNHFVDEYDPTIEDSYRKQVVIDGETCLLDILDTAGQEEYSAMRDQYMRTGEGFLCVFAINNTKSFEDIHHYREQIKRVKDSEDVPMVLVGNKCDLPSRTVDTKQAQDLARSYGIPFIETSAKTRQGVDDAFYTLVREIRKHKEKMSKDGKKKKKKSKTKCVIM
T2 sequence (P01116 1-188 isoform P01116-2 G12V): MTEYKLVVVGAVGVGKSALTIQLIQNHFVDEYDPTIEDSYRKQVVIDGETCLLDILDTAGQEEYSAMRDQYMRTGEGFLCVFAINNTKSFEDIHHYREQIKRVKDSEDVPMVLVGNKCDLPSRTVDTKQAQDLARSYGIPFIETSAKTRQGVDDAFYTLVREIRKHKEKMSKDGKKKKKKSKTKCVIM

DC50 (KRAS4B G12D): 0.048 µM
Dmax at 18 h (KRAS4B G12D): 94 % Ctrl.
IC50 (SW620 cells): 0.28 µM
DC50 (KRAS4B G12V): 0.0988 µM
Dmax at 18 h (KRAS4B G12V): 90 % Ctrl.
DC50 (KRAS(G12D)): 0.0477 µM
Dmax 18 h (KRAS(G12D)): 94 % Ctrl
IC50 (GP5d cells): 0.141 µM
IC50 (NCI-H358 cells; assay 1, read-out: H358 (assay 1) IC50): 2.5 µM
IC50 (NCI-H358 cells; assay 2, read-out: H358 (assay 2) IC50): 0.168 µM
DC50 (KRAS4B G13D): 0.0449 µM
Dmax at 18 h (KRAS4B G13D): 90 % Ctrl.
DC50 (KRAS4B WT): 0.0362 µM
Dmax at 18 h (KRAS4B WT): 95.4 % Ctrl.
Compound: Cc1ncsc1-c1ccc(CNC(=O)[C@@H]2C[C@@H](O)CN2C(=O)[C@@H](NC(=O)CCCCCN2CCCN(c3nccc(-c4noc([C@@]5(C)CCCc6sc(N)c(C#N)c65)n4)n3)[C@@H](C)C2)C(C)(C)C)cc1 [I-47]
